{
  "source": "patent US10927075B2",
  "about": "“Compositions and methods relating to the treatment of cancer, autoimmune disease, and neurodegenerative disease” (THE JACKSON LABORATORY, priority 2014, dated 2021)",
  "key": {"[1]": {"test_system": "primary, AID expressing B-cells", "assay": "Live cell imaging of nuclei fragmentation", "assay_type": "cell-based, mice", "conditions": "100 nM, individual cell imaged at 20 minute intervals", "experimental": "FIG. 22 depicts live cell imaging of primary, AID expressing B-cells treated with 100 nM C-1523. Histone H2B-EGFP transgenic mice were used as a source of B-cells to facilitate imaging of chromatin. The top panel depicts an individual cell imaged at 20 minute intervals for 460 minutes. Images show chromosomal fragmentation commencing at 120 minutes. Data in the bottom panels depict quantification of live cell imaging depicting the fraction of cells that commence fragmentation at each time point (bottom left panel) and the cumulative fraction of fragmented nuclei (bottom right panel).\nAID+/+ or AID−/− B-cells were cultured with 100 nM and cell cycle profiles were determined by propidium iodide staining and flow cyotmetry at intervals up to 96 hours. Non-activated (CD40) cells were used as a negative control; activated cells treated with the microtuble poison colcemid (ACT+colcemid) were used as a positive control. Nuclei fragmentation analysis of primary, AID expressing B-cells treated with 100 nM C-1523 was conducted (FIG. 22)."}, "CH12-F3 cells": {"test_system": "CH12-F3 cells", "assay": "Radiosensitivity (viability after ionizing irradiation)", "assay_type": "cell-based, mouse", "conditions": "50 nM, 100 nM, or 150 nM; 0 or 2.5Gy", "experimental": "FIG. 13A depicts a viability analysis of C-1523-treated CH12-F3 cells 24 h after 0 or 2.5 Gy IR. Data are normalized to the fraction of cells for each IR dose that received DMSO vehicle only; error bars represent the SEM for three independent experiments. FIG. 13B depicts detection of RAD51 by immunofluorescence in primary mouse B cells 24 h after 0 or 2.5 Gy IR and treatment with C-1523 (100 nM) or vehicle. RAD51 staining is in red, nuclear DNA (DAPI-stained) is in blue. Scale bar: 10 μM. FIG. 13C depicts the quantification of cells with nuclear RAD51 (RAD51+) from FIG. 13B. Error bars represent the SEM for three independent experiments. FIG. 13D depicts the quantitation of RAD51 expression in nuclear and cytoplasmic fractions as determined by Western Blot. Values represent the average of three independent experiments and error bars are the SEM. FIG. 13E depicts the immunofluorescent detection of NF-κB localization in primary murine B cells. […] FIG. 13F depicts the quantitation of nuclear NF-κB staining from FIG. 13E. […]\nC-1523 disrupts RAD51 nucleocytoplasmic distribution and damage induced relocalization. To assess the DNA repair inhibitory activity of C-1523, radiosensitivity was measured in the mouse leukemia cell line, CH12-F3, with or without C-1523. […] Cells were allowed to recover in culture in the presence of C-1523 (or vehicle control) and viable cells were quantified. […]"}, "[2]": {"test_system": "WT, AID−/−, or Trp53−/− B-cells", "assay": "Active caspase-3 (AC3) immunofluorescence", "assay_type": "cell-based, mouse", "conditions": "100 nM, 3 days after activation", "experimental": "FIG. 16A depicts the measurement of viability of primary WT (AID+/+, circle markers), AID−/− (square markers), and p53−/− (triangle markers) B cells under activating conditions (αCD40 and IL-4 on days 0 and 2) and treated with either DMSO (filled in markers) or 100 nM C-1523 (open markers). Measurement of cell viability was determined by Trypan Blue staining and counting of viable, non-staining, cells via hemocytometer. Data are represented as the mean cell count for each condition. FIG. 16B depicts analysis of cell death on day 4 of cells treated as in FIG. 16A. Cell death was measured by Trypan Blue staining and counting of blue, dead cells via hemocytometer. FIG. 16C depicts quantitation of active caspase-3 (AC3) in primary B cells via immunofluorescence assay. Left, positive (WT, 10 Gy IR) and negative (0 Gy, and p53−/− 10 Gy) controls for AC3 induction. […]\nCell death mediated by C-1523 is p53-dependent. […] To test the importance of p53, a central regulator of cellular responses to DNA damage, viability was measured in mouse primary B-cells from Trp53+/+ versus Trp53−/− mice following exposure to C-1523. […] Caspase 3 activation, a marker of apoptotic cell death, was measured in C-1523 treated B-cells. B-cells were stained with an antibody that recognizes cleaved, activated caspase-3 (AC3) and the number of AC3-positive cells was measured via immunofluorescence microscopy. […]"}, "mES cells": {"test_system": "mES cells", "assay": "DR-GFP reporter assay (HR repair of endonuclease generated DSB)", "assay_type": "cell-based, mouse", "conditions": "100 nM, compared to DMSO"}, "[3]": {"test_system": "primary B-cells from Trp53−/− mice", "assay": "Viability of activated primary B-cells", "assay_type": "cell-based, mouse", "conditions": "100 nM, 4-day activation", "experimental": "Cell death mediated by C-1523 is p53-dependent. It was hypothesized that AID-dependent cytotoxicity induced by C-1523 would be associated with p53-mediated apoptosis. To test the importance of p53, a central regulator of cellular responses to DNA damage, viability was measured in mouse primary B-cells from Trp53+/+ versus Trp53−/− mice following exposure to C-1523. […] Caspase 3 activation, a marker of apoptotic cell death, was measured in C-1523 treated B-cells. B-cells were stained with an antibody that recognizes cleaved, activated caspase-3 (AC3) and the number of AC3-positive cells was measured via immunofluorescence microscopy. Following 10 Gy of ionizing irradiation Trp53+/+(WT), but not Trp53−/− cultures show a >30-fold increase in the percentage of AC3+ cells, confirming Trp53 dependent apoptosis in these cells after DNA damage. […] In order to more completely rule out apoptosis as the mode of cell death following C-1523 treatment in B cells, the expression of other common markers of apoptotic induction was examined via Western Blot.\nCell lines and cell culture. […] Immunofluorescence."}, "[4]": {"test_system": "primary splenic B-cells from AID−/− mice", "assay": "Expansion and viability of activated primary splenic B-cells", "conditions": "50-250 nM, four days, αCD40+IL-4 activation"}},
  "data": [
    {"smiles": "CC(=O)Nc1ccc(/C=C/c2ccc(NC(=S)NC(C)C)cc2S(=O)(=O)O)c(S(=O)(=O)O)c1", "note": "[C-1523, (E)-5-acetamido-2-(4-(3-isopropylthioureido)-2-sulfonatostyryl)benzenesulfonate]", "values": [
      {"measurement": "time at which chromosomal fragmentation commences", "setting": "[1]", "value": 120, "unit": "min"},
      {"measurement": "sensitivity to ionizing irradiation", "setting": "CH12-F3 cells", "value": "sensitivity to ionizing irradiation at every concentration tested"},
      {"measurement": "caspase 3 activation", "setting": "[2]", "value": "did not significantly induce caspase 3 activation"},
      {"measurement": "reduction of percentage of GFP-positive cells", "setting": "mES cells", "value": "about 40%"},
      {"measurement": "viability", "setting": "[3]", "value": "did not show reduced viability"},
      {"measurement": "cellular expansion", "setting": "[4]", "value": "expanded identically to vehicle-treated controls"}
    ]}
  ]
}
